The values below come from US4371465A, “Mammalian collagenase inhibitors” (American Home Products Corporation, priority 1981, dated 1983).

SMILES strings stand for the structures.

The assay concerns collagenase. Briefly: Collagenase inhibition (acetyl 14C collagen hydrolysis, procedure of Sellers et al.). Format: biochemical. Conditions: 2 mM inhibitor; 35° C., 5 to 18 hours; Tris-CaCl2 pH 7.4; vs control devoid of inhibitor. As to the method:
The inhibitory effect of the compounds of this invention toward collagenase was determined following the procedure of Sellers et al., Biochem J. 167 353-360 (1977) whereby the 2mM of the inhibitor being tested is incubated at 35° C. for from 5 to 18 hours (depending upon the potency of the collagenase) with collagen and collagenase (buffered with Tris®-CaCl2; pH 7.4). The collagen is acetyl ^14 C collagen. The samples are centrifuged and an aliquot removed for assay on a scintillation counter. Because native collagen forms insoluble fibrils under the test conditions, the supernatant liquid contains radioactivity as a measure of hydrolysis. The collagenase activity in the presence of 2mM inhibitor is compared to activity in a control devoid of inhibitor and the results reported as percent inhibition of collagenase activity. Each of the compounds of this invention have been established as active collagenase inhibitors by the test procedure.
The following example illustrates the preparation of a typical, representative compound of the invention. The precent inhibition of collagenase activity at the 2 mM polypeptide level in accordance with the previously described standard testing procedure is provided after the preparatory description is compared to D-penicillamine alone, the latter being a known collagenase inhibitor.

On to `CC(C)(S)[C@@H](N)C(=O)O` [D-penicillamine], for which the Percent inhibition collagenase is reported as 39.
